Consider three compounds from publication PMC11406233 (Proceedings of the National Academy of Sciences of the …, 2024).

Read-outs that look alike come from different tables or passages of the source.

The test system of assay [1] is SCoV2^WK521WT. Nature of the assay: microbe, parasite or virus in culture. In kind it is cell-based. Particulars: for EC50: Severe acute respiratory syndrome coronavirus 2, read-out: EC50 from cell-based assay.
Assay [2] relates to SCoV2^WK521WT. Description: microbe, parasite or virus in culture. Particulars: Severe acute respiratory syndrome coronavirus 2, VeroE6/TMPRSS2, read-out: EC50 from cell-based assay.

A word on the EC50: it is the concentration needed to bring the measured effect to its halfway point. In the case of `CC(C)(C)[C@H](NC(=O)C(F)(F)F)C(=O)N1C[C@H]2[C@@H]([C@H]1C(=O)N[C@@H](C[C@@H]1CCNC1=O)C(=O)c1nc3c(F)cccc3s1)C2(C)C` [TKB245], the “Difference in the EC50 values of NIR and TKB245” value in the assay with SCoV2^WK521WT [1] was 34.7 fold. Moreover, the figures for the EC50 in the assay on SCoV2^WK521WT [1] and in the assay on SCoV2^WK521WT [2] were 1.5 nM and 330 nM, respectively.
On to `COc1cccc2[nH]c(C(=O)N[C@@H](CC(C)C)C(=O)N[C@@H](C[C@@H]3CCNC3=O)C(=O)c3nc4ccccc4s3)cc12` [5h], for which the 50% effective concentration (EC50) in the assay on SCoV2^WK521WT [1] was 200 ± 90 nM; in the assay on SCoV2^WK521WT [2], 4100 nM.
The matching figures for `CC(C)(C)[C@H](NC(=O)C(F)(F)F)C(=O)N1C[C@H]2[C@@H]([C@H]1C(=O)N[C@H](C#N)C[C@@H]1CCNC1=O)C2(C)C` [nirmatrelvir, reference compound]: 52 nM and 1500 nM.
